Laboratory results: patent US4387238A, “Epoxysuccinamic acid compounds” (Taisho Pharmaceutical Co., Ltd., priority 1978, dated 1983)

Target: T1, papain (Carica papaya, UniProt P00784)
T1 construct: purchased Sigma Chem. Co
T1 sequence (P00784 134-345): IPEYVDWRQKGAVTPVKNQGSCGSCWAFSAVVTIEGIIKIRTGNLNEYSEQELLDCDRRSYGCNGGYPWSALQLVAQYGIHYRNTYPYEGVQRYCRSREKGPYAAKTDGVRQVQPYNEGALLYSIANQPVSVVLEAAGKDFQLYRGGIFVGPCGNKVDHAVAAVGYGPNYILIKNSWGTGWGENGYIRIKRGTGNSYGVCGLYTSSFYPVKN
Test: Papain inhibitory activity (milk casein proteolysis)
Assay type: biochemical
Design: unit not given beside the values
Conditions: amount of inhibitor for 50% inhibition; pH 6.8, 40° C., casein substrate
Description: Papain inhibitory activity of the compounds of the present invention was assayed as follows: To 0.5 ml of a solution of papain (80 μg/ml, Sigma Chem. Co., 2x, cry.), were added 0.25 ml of 40 mM cysteine dissolved in 20 mM disodium ethylenediamine tetraacetic acid solution adjusted pH to 6.8 with sodium hydroxide and 0.25 ml of 33 mM phosphate buffer (pH 6.8) with or without inhibitor. After incubation for 15 minutes at 40° C., the resulting mixture was added to 5 ml of 1% milk casein solution in the same buffer as described above, and further incubated for 10 minutes at 40° C. Then the mixture was mixed with 5 ml of 0.44 M trichloroacetic acid solution and followed by filtration with a sheet of Toyo filter paper No. 4.
The extinction of the filtrate was read at 280 nm. The percent inhibition was calculated from the formula, 100×(B-A)/B; wherein B stands for the absorbance without inhibitor and A for the absorbance with inhibitor. The compound Nos. in Table 2 are as defined in Examples as described hereinafter.

| SMILES | ID50 |
| --- | --- |
| CCOC(=O)[C@H]1O[C@@H]1C(N)=O (relative stereo) [Compound No. 55, ethyl 2,3-epoxysuccinamate] | 3.14 γ |
| CCOC(=O)[C@H]1O[C@@H]1C(=O)N(CC(C)C)CC(C)C (relative stereo) [Compound No. 56, ethyl N,N-diisobutyl-2,3-epoxysuccinamate] | 148.80 γ |
| CCOC(=O)[C@H]1O[C@@H]1C(=O)N(CC)CC (relative stereo) [Compound No. 57, ethyl N,N-diethyl-2,3-epoxysuccinamate] | 46.30 γ |
| CCOC(=O)[C@H]1O[C@@H]1C(=O)N(C)Cc1ccccc1 (relative stereo) [Compound No. 58, ethyl N-methyl-N-benzyl-2,3-epoxysuccinamate] | 231.50 γ |
| CCCN(C(=O)[C@H]1O[C@@H]1C(=O)OCC)c1ccccc1 (relative stereo) [Compound No. 59, ethyl N-propyl-N-phenyl-2,3-epoxysuccinamate] | 154.50 γ |
| COC(=O)[C@H]1O[C@@H]1C(=O)NC1CCCCC1 (relative stereo) [Compound No. 61, Methyl N-cyclohexyl-2,3-epoxysuccinamate] | 19.65 γ |
| CCCOC(=O)[C@H]1O[C@@H]1C(=O)Nc1ccccc1 (relative stereo) [Compound No. 62, Propyl N-phenyl-2,3-epoxysuccinamate] | 6.16 γ |
| CCCOC(=O)[C@H]1O[C@@H]1C(=O)NC1CCCC1 (relative stereo) [Compound No. 63, Propyl N-cyclopentyl-2,3-epoxysuccinamate] | 4.23 γ |
| CCCOC(=O)[C@H]1O[C@@H]1C(=O)NC(C)C (relative stereo) [Compound No. 64, Propyl N-isopropyl-2,3-epoxysuccinamate] | 8.32 γ |
| CCNC(=O)[C@H]1O[C@@H]1C(=O)OC(C)C (relative stereo) [Compound No. 65, Isopropyl N-ethyl-2,3-epoxysuccinamate] | 13.65 γ |
| CC(C)NC(=O)[C@H]1O[C@@H]1C(=O)OCc1ccccc1 (relative stereo) [Compound No. 67, Benzyl N-isopropyl-2,3-epoxysuccinamate] | 5.14 γ |
| CCOC(=O)[C@H]1O[C@@H]1C(=O)NCCCCNC(=O)OCc1ccccc1 (relative stereo) [Compound No. 68, ethyl N-carbobenzoxyaminobutyl-2,3-epoxysuccinamate] | 24.04 γ |
| CCOC(=O)[C@H]1O[C@@H]1C(=O)NCCCCCNC(=O)OCc1ccccc1 (relative stereo) [Compound No. 69, ethyl N-carbobenzoxyaminopentyl-2,3-epoxysuccinamate] | 12.05 γ |
| COC(=O)[C@H]1O[C@@H]1C(=O)N1CCOCC1 (relative stereo) [Compound No. 70, Methyl N-oxydiethylene-2,3-epoxysuccinamate] | 90.25 γ |
| C=CCOC(=O)[C@H]1O[C@@H]1C(=O)NCCc1ccccc1 (relative stereo) [Compound No. 71, Allyl N-phenethyl-2,3-epoxysuccinamate] | 4.13 γ |
| CN1CCN(C(=O)[C@H]2O[C@@H]2C(=O)OCC2CCCC2)CC1 (relative stereo) [Compound No. 72, Cyclopentanemethyl N-N'-methylaminodiethylene-2,3-epoxysuccinamate] | 146.51 γ |
| CCOC(=O)[C@@H]1O[C@H]1C(=O)N1CCCC1 (relative stereo) [Compound No. 73, ethyl N-tetramethylene-2,3-epoxysuccinamate] | 128.50 γ |
| C#CCOC(=O)[C@@H]1O[C@H]1C(=O)N1CCCCC1 (relative stereo) [Compound No. 74, propargyl N-pentamethylene-2,3-epoxysuccinamate] | 39.62 γ |

| SMILES | ID50 |
| --- | --- |
| CCOC(=O)[C@@H]1O[C@H]1C(=O)N1CCCC1C (relative stereo) [Compound No. 75, ethyl N-1'-methyltetramethylene-2,3-epoxysuccinamate] | 130.10 γ |
| CCOC(=O)[C@@H]1O[C@H]1C(=O)N1CCCCC1 (relative stereo) [Compound No. 77, Ethyl N-pentamethylene-2,3-epoxysuccinamate] | 145.21 γ |
| O=C(OCc1ccccc1)[C@@H]1O[C@H]1C(=O)N1CCCCC1 (relative stereo) [Compound No. 78, Benzyl N-pentamethylene-2,3-epoxysuccinamate] | 34.23 γ |
| O=C(OCCCC1CCCC1)[C@@H]1O[C@H]1C(=O)N1CCCC1 (relative stereo) [Compound No. 79, 3'-Cyclopentanepropyl N-tetramethylene-2,3-epoxysuccinamate] | 36.25 γ |
| CCOC(=O)[C@@H]1O[C@H]1C(=O)Nc1ccccc1C(=O)O (relative stereo) [Compound No. 81, ethyl N-2'-carboxyphenyl-2,3-epoxysuccinamate] | 36.76 γ |
| CCOC(=O)[C@@H]1O[C@H]1C(=O)Nc1cc(Cl)ccc1C(=O)O (relative stereo) [Compound No. 82, ethyl N-2'-carboxy-5'-chlorophenyl-2,3-epoxysuccinamte] | 277.80 γ |
| CCOC(=O)[C@@H]1O[C@H]1C(=O)NCC1CC1 (relative stereo) [Compound No. 83, ethyl N-cyclopropanemethyl-2,3-epoxysuccinamate] | 130.20 γ |
| CNC(=O)[C@H]1O[C@@H]1C(=O)Oc1ccccc1 (relative stereo) [Compound No. 84, phenyl N-methyl-2,3-epoxysuccinamate] | 12.65 γ |
| CCOC(=O)[C@@H]1O[C@H]1C(=O)N(C)C (relative stereo) [Compound No. 85, ethyl N,N-dimethyl-2,3-epoxysuccinamate] | 39.50 γ |
| CNC(=O)[C@@H]1O[C@H]1C(=O)OCCC(C)C (relative stereo) [Compound No. 89, Isoamyl N-methyl-2,3-epoxysuccinamate] | 14.81 γ |
| CC(C)CCOC(=O)[C@@H]1O[C@H]1C(=O)N(C)C (relative stereo) [Compound No. 90, Isoamyl N,N-dimethyl-2,3-epoxysuccinamate] | 50.25 γ |
| CNC(=O)[C@H]1O[C@@H]1C(=O)OCc1ccccc1 (relative stereo) [Compound No. 91, Benzyl N-methyl-2,3-epoxysuccinamate] | 9.68 γ |
| CCOC(=O)[C@@H]1O[C@H]1C(=O)N1CCCCC1C(=O)OCc1ccccc1 (relative stereo) [Compound No. 92, Ethyl N-1'-carbobenzoxypentamethylene-2,3-epoxysuccinamate] | 120.10 γ |
| CC(C)OC(=O)[C@@H]1O[C@H]1C(=O)Nc1ccccc1 (relative stereo) [Compound No. 93, isopropyl N-phenyl-2,3-epoxysuccinamate] | 21.55 γ |
| O=C(Nc1ccccc1)[C@@H]1O[C@H]1C(=O)OCC1CCCCC1 (relative stereo) [Compound No. 94, cyclohexanemethyl N-phenyl-2,3-epoxysuccinamate] | 1.51 γ |
| O=C(O)[C@@H]1O[C@H]1C(=O)Nc1ccccc1 (relative stereo) [Compound No. 95, potassium N-phenyl-2,3-epoxysuccinamate] | 0.330 γ |
| O=C(O)[C@@H]1O[C@H]1C(=O)NCc1ccccc1 (relative stereo) [Compound No. 96, potassium N-benzyl-2,3-epoxysuccinamate] | 0.158 γ |
